Test system: Bloodstream form of Trypanosoma brucei, strain Lister 427
Test: Trypanosoma brucei growth inhibition assay (CellTiter-Glo, 24 h)
Format: cell-based
Settings: Trypanosoma brucei; T. Brucei Growth Inibition Assay, class symbols; read-out: T. Brucei GI EC50
In short: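 Bloodstream-form T. brucei Lister 427, 1500 parasites per well in supplemented IMDM with 10% FBS, were exposed to compound (DMSO ≤0.25% final) for 24 h at 37 °C. Viability was measured by CellTiter-Glo luminescence.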

| Compound | EC50 |
| --- | --- |
| COc1ccc2nc(C(F)(F)F)n(CC(=O)N3CC[C@H](NCc4ccon4)C[C@H]3c3ncc(-c4cc5ccccc5nc4OC)[nH]3)c2c1 [1-((2S,4S)-4-((isoxazol-3-ylmethyl)amino)-2-(5-(2-methoxyquinolin-3-yl)-1H-imidazol-2-yl)piperidin-1-yl)-2-(6-methoxy-2-(trifluoromethyl)-1H-benzo[d]imidazol-1-yl)ethan-1-one] | < 0.1 µM |
| COc1ccc2nc(C(F)(F)F)n(CC(=O)N3CC[C@H](NCc4cnoc4)C[C@H]3c3ncc(-c4cc5ccccc5nc4OC)[nH]3)c2c1 [1-((2S,4S)-4-((isoxazol-4-ylmethyl)amino)-2-(5-(2-methoxyquinolin-3-yl)-1H-imidazol-2-yl)piperidin-1-yl)-2-(6-methoxy-2-(trifluoromethyl)-1H-benzo[d]imidazol-1-yl)ethan-1-one] | < 0.1 µM |
| COc1ccc2nc(C(F)(F)F)n(CC(=O)N3CC[C@H](NC4CCC4)C[C@H]3c3ncc(-c4cc5ccccc5nc4OC)[nH]3)c2c1 [1-((2S,4S)-4-(cyclobutylamino)-2-(5-(2-methoxyquinolin-3-yl)-1H-imidazol-2-yl)piperidin-1-yl)-2-(6-methoxy-2-(trifluoromethyl)-1H-benzo[d]imidazol-1-yl)ethan-1-one] | < 0.1 µM |
| COc1ccc2nc(C(F)(F)F)n(CC(=O)N3CC[C@H](N(C)C)C[C@H]3c3ncc(-c4cc5ccccc5nc4OC)[nH]3)c2c1 [1-((2S,4S)-4-(dimethylamino)-2-(5-(2-methoxyquinolin-3-yl)-1H-imidazol-2-yl)piperidin-1-yl)-2-(6-methoxy-2-(trifluoromethyl)-1H-benzo[d]imidazol-1-yl)ethan-1-one] | < 0.1 µM |
| CCN(C1CCOC1)[C@H]1CCN(C(=O)Cn2c(C(F)(F)F)nc3ccc(OC)cc32)[C@H](c2ncc(-c3cc4ccccc4nc3OC)[nH]2)C1 (stereo partly drawn) [1-((2S,4S)-4-(ethyl(tetrahydrofuran-3-yl)amino)-2-(5-(2-methoxyquinolin-3-yl)-1H-imidazol-2-yl)piperidin-1-yl)-2-(6-methoxy-2-(trifluoromethyl)-1H-benzo[d]imidazol-1-yl)ethan-1-one] | < 0.1 µM |
| COc1ccc2nc(C(F)(F)F)n(CC(=O)N3CC[C@H](NCC(C)C)C[C@H]3c3ncc(-c4cc5ccccc5nc4OC)[nH]3)c2c1 [1-((2S,4S)-4-(isobutylamino)-2-(5-(2-methoxyquinolin-3-yl)-1H-imidazol-2-yl)piperidin-1-yl)-2-(6-methoxy-2-(trifluoromethyl)-1H-benzo[d]imidazol-1-yl)ethan-1-one] | < 0.1 µM |
| COc1ccc2nc(C(F)(F)F)n(CC(=O)N3CC[C@H](N(Cc4ccn(C)n4)C(C)C)C[C@H]3c3ncc(-c4cc5ccccc5nc4OC)[nH]3)c2c1 [1-((2S,4S)-4-(isopropyl((1-methyl-1H-pyrazol-3-yl)methyl)amino)-2-(5-(2-methoxyquinolin-3-yl)-1H-imidazol-2-yl)piperidin-1-yl)-2-(6-methoxy-2-(trifluoromethyl)-1H-benzo[d]imidazol-1-yl)ethan-1-one] | < 0.1 µM |
| COc1ccc2nc(C(F)(F)F)n(CC(=O)N3CC[C@H](NC(C)C)C[C@H]3c3ncc(-c4cc5ccccc5nc4OC)[nH]3)c2c1 [1-((2S,4S)-4-(isopropylamino)-2-(5-(2-methoxyquinolin-3-yl)-1H-imidazol-2-yl)piperidin-1-yl)-2-(6-methoxy-2-(trifluoromethyl)-1H-benzo[d]imidazol-1-yl)ethan-1-one] | < 0.1 µM |
| COc1ccc2nc(C(F)(F)F)n(CC(=O)N3CC[C@H](N)C[C@H]3c3ncc(-c4cc5ccccc5nc4OC)[nH]3)c2c1 [1-((2S,4S)-4-amino-2-(5-(2-methoxyquinolin-3-yl)-1H-imidazol-2-yl)piperidin-1-yl)-2-(6-methoxy-2-(trifluoromethyl)-1H-benzo[d]imidazol-1-yl)ethan-1-one] | 1.01 to 5 µM |
| COc1ccc2nc(C(F)(F)F)n(CC(=O)N3CC[C@H](OC)C[C@H]3c3ncc(-c4cc5ccccc5nc4OC)[nH]3)c2c1 [1-((2S,4S)-4-methoxy-2-(5-(2-methoxyquinolin-3-yl)-1H-imidazol-2-yl)piperidin-1-yl)-2-(6-methoxy-2-(trifluoromethyl)-1H-benzo[d]imidazol-1-yl)ethan-1-one] | < 0.1 µM |
| COc1ccc2nc(C)n(CC(=O)N3CC[C@H](OC)C[C@H]3c3ncc(-c4cc5ccccc5nc4OC)[nH]3)c2c1 [1-((2S,4S)-4-methoxy-2-(5-(2-methoxyquinolin-3-yl)-1H-imidazol-2-yl)piperidin-1-yl)-2-(6-methoxy-2-methyl-1H-benzo[d]imidazol-1-yl)ethan-1-one] | < 0.1 µM |
| CN1CCN(S(=O)(=O)Cc2ccccc2)C(c2ncc(-c3ccc4ccccc4c3)[nH]2)C1 (stereo not drawn) [1-(benzylsulfonyl)-4-methyl-2-(5-(naphthalen-2-yl)-1H-imidazol-2-yl)piperazine] | 1.01 to 5 µM |
| COc1nc2ccccc2cc1-c1cnc([C@@H]2CN(CC3CCOC3)CCN2C(=O)Cn2c(C(C)(C)C)nc3ccccc32)[nH]1 (stereo partly drawn) [2-(2-(tert-butyl)-1H-benzo[d]imidazol-1-yl)-1-((2S)-2-(5-(2-methoxyquinolin-3-yl)-1H-imidazol-2-yl)-4-((tetrahydrofuran-3-yl)methyl)piperazin-1-yl)ethan-1-one] | < 0.1 µM |
| Cc1[nH]c2ccccc2c1CC(=O)N1CCN(CC2CCOC2)CC1c1ncc(-c2ccc3ccccc3c2)[nH]1 (stereo not drawn) [2-(2-methyl-1H-indol-3-yl)-1-(2-(5-(naphthalen-2-yl)-1H-imidazol-2-yl)-4-((tetrahydrofuran-3-yl)methyl)piperazin-1-yl)ethan-1-one] | < 0.1 µM |
| COc1cc2nc(C(F)(F)F)n(CC(=O)N3CCN(CC4CCOC4)C[C@H]3c3ncc(-c4cc5ccccc5nc4OC)[nH]3)c2cc1OC (stereo partly drawn) [2-(5,6-dimethoxy-2-(trifluoromethyl)-1H-benzo[d]imidazol-1-yl)-1-((2S)-2-(5-(2-methoxyquinolin-3-yl)-1H-imidazol-2-yl)-4-((tetrahydrofuran-3-yl)methyl)piperazin-1-yl)ethan-1-one] | < 0.1 µM |
| CCC(=O)CCCN1CCN(C(=O)Nc2ccccc2)C(c2ncc(-c3ccc4ccccc4c3)[nH]2)C1 (stereo not drawn) [2-(5-(naphthalen-2-yl)-1H-imidazol-2-yl)-4-(4-oxohexyl)-N-phenylpiperazine-1-carboxamide] | 1.01 to 5 µM |
| COc1nc2ccccc2cc1-c1cnc(C2CN(Cc3cnccn3)CCN2C(=O)Cc2c(C)[nH]c3ccc(F)cc23)[nH]1 (stereo not drawn) [2-(5-fluoro-2-methyl-1H-indol-3-yl)-1-(2-(5-(2-methoxyquinolin-3-yl)-1H-imidazol-2-yl)-4-(pyrazin-2-ylmethyl)piperazin-1-yl)ethan-1-one] | < 0.1 µM |
| COc1nc2ccccc2cc1-c1cnc(C2CN(C(=O)C3CCOC3)CCN2C(=O)Cc2c(C)[nH]c3ccc(F)cc23)[nH]1 (stereo not drawn) [2-(5-fluoro-2-methyl-1H-indol-3-yl)-1-(2-(5-(2-methoxyquinolin-3-yl)-1H-imidazol-2-yl)-4-(tetrahydrofuran-3-carbonyl)piperazin-1-yl) ethan-1-one] | 1.01 to 5 µM |
| COc1nc2ccccc2cc1-c1cnc(C2CNCCN2C(=O)Cc2c(C)[nH]c3ccc(F)cc23)[nH]1 (stereo not drawn) [2-(5-fluoro-2-methyl-1H-indol-3-yl)-1-(2-(5-(2-methoxyquinolin-3-yl)-1H-imidazol-2-yl)piperazin-1-yl)ethan-1-one] | 1.01 to 5 µM |
| COc1nc2ccccc2cc1-c1cnc(C2CS(=O)(=O)CCN2C(=O)Cc2c(C)[nH]c3ccc(F)cc23)[nH]1 (stereo not drawn) [2-(5-fluoro-2-methyl-1H-indol-3-yl)-1-(3-(5-(2-methoxyquinolin-3-yl)-1H-imidazol-2-yl)-1,1-dioxidothiomorpholino)ethan-1-one] | 0.1 to 0.5 µM |
| COc1nc2ccccc2cc1-c1cnc(C2CN([S+]([O-])C(C)C)CCN2C(=O)Cc2c(C)[nH]c3ccc(F)cc23)[nH]1 (stereo not drawn) [2-(5-fluoro-2-methyl-1H-indol-3-yl)-1-(4-(isopropylsulfinyl)-2-(5-(2-methoxyquinolin-3-yl)-1H-imidazol-2-yl)piperazin-1-yl)ethan-1-one] | 1.01 to 5 µM |
| COc1nc2ccccc2cc1-c1cnc(C2CCN(Cc3ccn(C)n3)CCN2C(=O)Cc2c(C)[nH]c3ccc(F)cc23)[nH]1 (stereo not drawn) [2-(5-fluoro-2-methyl-1H-indol-3-yl)-1-(7-(5-(2-methoxyquinolin-3-yl)-1H-imidazol-2-yl)-4-((1-methyl-1H-pyrazol-3-yl)methyl)-1,4-diazepan-1-yl)ethan-1-one] | < 0.1 µM |
| COc1ccc2c(c1)nc(C(F)(F)F)n2CC(=O)N1CCN(CC2CCOC2)C[C@H]1c1ncc(-c2cc3ccccc3nc2OC)[nH]1 (stereo partly drawn) [2-(5-methoxy-2-(trifluoromethyl)-1H-benzo[d]imidazol-1-yl)-1-((2S)-2-(5-(2-methoxyquinolin-3-yl)-1H-imidazol-2-yl)-4-((tetrahydrofuran-3-yl)methyl)piperazin-1-yl)ethan-1-one] | < 0.1 µM |
| COc1ccc2[nH]c(C)c(CC(=O)N3CCCN(C)CC3c3ncc(-c4ccc5ccccc5c4)[nH]3)c2c1 (stereo not drawn) [2-(5-methoxy-2-methyl-1H-indol-3-yl)-1-(4-methyl-2-(5-(naphthalen-2-yl)-1H-imidazol-2-yl)-1,4-diazepan-1-yl)ethan-1-one] | 1.01 to 5 µM |
| COc1ccc2[nH]c(C)c(CC(=O)N3CCN(C)CCC3c3ncc(-c4ccc5ccccc5c4)[nH]3)c2c1 (stereo not drawn) [2-(5-methoxy-2-methyl-1H-indol-3-yl)-1-(4-methyl-7-(5-(naphthalen-2-yl)-1H-imidazol-2-yl)-1,4-diazepan-1-yl)ethan-1-one] | 0.1 to 0.5 µM |
| COc1ccc2[nH]c(C)c(CC(=O)N3CCN(Cc4ccn(C)n4)CCC3c3ncc(-c4cc5ccccc5nc4OC)[nH]3)c2c1 (stereo not drawn) [2-(5-methoxy-2-methyl-1H-indol-3-yl)-1-(7-(5-(2-methoxyquinolin-3-yl)-1H-imidazol-2-yl)-4-((1-methyl-1H-pyrazol-3-yl)methyl)-1,4-diazepan-1-yl)ethan-1-one] | < 0.1 µM |
| COc1ccc2nc(C(F)(F)F)n(CC(=O)N3CCCCC3c3ncc(-c4cc5ccccc5nc4OC)[nH]3)c2c1 (stereo not drawn) [2-(6-methoxy-2-(trifluoromethyl)-1H-benzo[d]imidazol-1-yl)-1-(2-(5-(2-methoxyquinolin-3-yl)-1H-imidazol-2-yl)piperidin-1-yl)ethan-1-one] | < 0.1 µM |
